Measured values from patent publication US12275731B2, “Azaindole inhibitors of wild-type and mutant forms of LRRK2” (DANA-FARBER CANCER INSTITUTE, INC., priority 2018, dated 2025).

Legend:
Test in all cases: KinomeScan profiling
Type in all cases: binding
BMPR1B = biological target: T1, BMPR1B (Homo sapiens, UniProt O00238); settings: read-out: % control
T1 construct: purchased KinomeScan®
Procedure, shortened: (§1)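 1 μM cpd in DMSO; 468-kinase panel; readout RLU. % ctrl = (cpd − pos ctrl)/(neg ctrl − pos ctrl) ×100. Pos ctrl = 0%, DMSO = 100%. Hit cut-off <35%.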

CSK = CSK (Homo sapiens, UniProt P41240); settings: read-out: % control
Procedure, shortened: as §1

CSNK1A1L = biological target: T2, CSNK1A1L (Homo sapiens, UniProt Q8N752); settings: read-out: % control
T2 sequence (Q8N752 1-337): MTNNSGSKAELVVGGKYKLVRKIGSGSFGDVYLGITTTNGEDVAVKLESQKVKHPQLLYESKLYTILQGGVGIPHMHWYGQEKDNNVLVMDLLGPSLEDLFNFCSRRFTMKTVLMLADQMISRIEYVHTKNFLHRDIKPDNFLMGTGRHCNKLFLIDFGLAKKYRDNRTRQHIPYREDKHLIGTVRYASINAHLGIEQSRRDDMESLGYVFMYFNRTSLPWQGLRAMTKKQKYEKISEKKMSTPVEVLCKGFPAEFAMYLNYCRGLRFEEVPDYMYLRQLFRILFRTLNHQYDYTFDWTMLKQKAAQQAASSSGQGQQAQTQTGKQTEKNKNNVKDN
Procedure, shortened: as §1

EGFR(E746-A750del) = EGFR(E746-A750del) (Homo sapiens, UniProt P00533, DEL746-750); settings: read-out: % control
Procedure, shortened: as §1

FLT3(D835V) = biological target: T3, FLT3(D835V) (Homo sapiens, UniProt P36888, D835V); settings: read-out: % control
T3 sequence (P36888 27-993 D835V): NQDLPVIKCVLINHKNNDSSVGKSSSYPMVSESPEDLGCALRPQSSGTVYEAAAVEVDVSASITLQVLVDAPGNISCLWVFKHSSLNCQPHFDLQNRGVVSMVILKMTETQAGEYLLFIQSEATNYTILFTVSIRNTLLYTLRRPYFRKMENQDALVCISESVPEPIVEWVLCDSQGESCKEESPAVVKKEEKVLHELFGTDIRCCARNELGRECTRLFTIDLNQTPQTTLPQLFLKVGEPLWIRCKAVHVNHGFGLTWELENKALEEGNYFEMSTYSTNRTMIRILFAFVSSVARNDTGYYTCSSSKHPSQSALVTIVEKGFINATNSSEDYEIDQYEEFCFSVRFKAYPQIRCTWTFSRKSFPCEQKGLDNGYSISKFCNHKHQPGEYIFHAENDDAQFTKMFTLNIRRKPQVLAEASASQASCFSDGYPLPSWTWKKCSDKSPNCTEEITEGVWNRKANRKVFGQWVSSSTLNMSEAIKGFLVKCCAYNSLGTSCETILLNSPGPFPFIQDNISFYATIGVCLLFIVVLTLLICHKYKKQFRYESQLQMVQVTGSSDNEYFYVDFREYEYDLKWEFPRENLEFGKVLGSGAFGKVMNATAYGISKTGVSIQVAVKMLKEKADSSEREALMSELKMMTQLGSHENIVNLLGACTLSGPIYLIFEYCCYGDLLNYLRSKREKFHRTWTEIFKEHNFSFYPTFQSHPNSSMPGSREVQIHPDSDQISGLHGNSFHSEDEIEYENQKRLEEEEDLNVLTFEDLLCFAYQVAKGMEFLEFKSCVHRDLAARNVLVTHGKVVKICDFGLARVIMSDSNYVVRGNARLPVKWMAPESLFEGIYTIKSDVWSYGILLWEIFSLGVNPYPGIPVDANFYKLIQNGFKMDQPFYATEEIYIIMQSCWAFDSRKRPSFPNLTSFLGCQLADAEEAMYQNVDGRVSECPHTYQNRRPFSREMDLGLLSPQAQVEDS
Procedure, shortened: as §1

PDGFRB = PDGFRB (Homo sapiens, UniProt P09619); settings: read-out: % control
Procedure, shortened: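 Compounds were screened at 1 μM in DMSO across a 468-kinase KinomeScan panel. Binding was expressed as % control, scaled between a positive control (0%) and DMSO (100%) using luminescence signal. A value under 35% counted as active.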

PRP4 = PRP4 (Homo sapiens, UniProt Q13523); settings: PRP4, 1 μM; read-out: % control
Procedure, shortened: as §1

ROCK2 = ROCK2 (Homo sapiens, UniProt O75116); settings: ROCK2, 1 μM; read-out: % control
Procedure, shortened: as §1

SLK = biological target: T4, SLK (Homo sapiens, UniProt Q9H2G2); settings: read-out: % control
T4 construct: purchased KinomeScan® (panel service)
Procedure, shortened: as §1

Sequence of PRP4 (Q13523 whole entry): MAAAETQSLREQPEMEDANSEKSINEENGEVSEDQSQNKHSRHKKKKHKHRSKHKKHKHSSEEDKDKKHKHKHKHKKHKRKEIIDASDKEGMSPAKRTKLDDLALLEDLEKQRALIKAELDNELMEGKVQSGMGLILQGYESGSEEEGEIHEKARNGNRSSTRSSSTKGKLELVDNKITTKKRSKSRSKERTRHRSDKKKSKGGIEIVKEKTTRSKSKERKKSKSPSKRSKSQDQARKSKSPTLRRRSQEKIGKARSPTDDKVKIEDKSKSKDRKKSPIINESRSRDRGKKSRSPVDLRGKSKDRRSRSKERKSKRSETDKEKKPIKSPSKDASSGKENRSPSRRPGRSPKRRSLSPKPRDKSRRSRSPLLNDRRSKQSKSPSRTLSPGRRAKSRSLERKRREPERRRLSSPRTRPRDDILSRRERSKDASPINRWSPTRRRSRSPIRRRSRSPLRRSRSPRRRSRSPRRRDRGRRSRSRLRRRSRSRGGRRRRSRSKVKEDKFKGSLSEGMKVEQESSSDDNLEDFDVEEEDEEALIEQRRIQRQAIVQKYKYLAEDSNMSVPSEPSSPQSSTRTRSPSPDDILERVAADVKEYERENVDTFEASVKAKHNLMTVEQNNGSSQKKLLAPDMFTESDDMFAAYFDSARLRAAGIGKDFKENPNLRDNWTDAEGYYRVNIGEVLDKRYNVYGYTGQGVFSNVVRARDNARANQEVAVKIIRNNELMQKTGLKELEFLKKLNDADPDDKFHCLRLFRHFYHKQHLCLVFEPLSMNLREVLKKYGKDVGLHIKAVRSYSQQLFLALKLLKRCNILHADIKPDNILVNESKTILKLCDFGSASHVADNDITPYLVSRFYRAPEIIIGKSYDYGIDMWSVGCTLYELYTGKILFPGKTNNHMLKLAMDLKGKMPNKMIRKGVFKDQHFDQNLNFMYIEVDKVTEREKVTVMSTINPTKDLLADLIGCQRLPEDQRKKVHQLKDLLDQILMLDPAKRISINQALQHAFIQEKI
Sequence of ROCK2 (O75116 whole entry): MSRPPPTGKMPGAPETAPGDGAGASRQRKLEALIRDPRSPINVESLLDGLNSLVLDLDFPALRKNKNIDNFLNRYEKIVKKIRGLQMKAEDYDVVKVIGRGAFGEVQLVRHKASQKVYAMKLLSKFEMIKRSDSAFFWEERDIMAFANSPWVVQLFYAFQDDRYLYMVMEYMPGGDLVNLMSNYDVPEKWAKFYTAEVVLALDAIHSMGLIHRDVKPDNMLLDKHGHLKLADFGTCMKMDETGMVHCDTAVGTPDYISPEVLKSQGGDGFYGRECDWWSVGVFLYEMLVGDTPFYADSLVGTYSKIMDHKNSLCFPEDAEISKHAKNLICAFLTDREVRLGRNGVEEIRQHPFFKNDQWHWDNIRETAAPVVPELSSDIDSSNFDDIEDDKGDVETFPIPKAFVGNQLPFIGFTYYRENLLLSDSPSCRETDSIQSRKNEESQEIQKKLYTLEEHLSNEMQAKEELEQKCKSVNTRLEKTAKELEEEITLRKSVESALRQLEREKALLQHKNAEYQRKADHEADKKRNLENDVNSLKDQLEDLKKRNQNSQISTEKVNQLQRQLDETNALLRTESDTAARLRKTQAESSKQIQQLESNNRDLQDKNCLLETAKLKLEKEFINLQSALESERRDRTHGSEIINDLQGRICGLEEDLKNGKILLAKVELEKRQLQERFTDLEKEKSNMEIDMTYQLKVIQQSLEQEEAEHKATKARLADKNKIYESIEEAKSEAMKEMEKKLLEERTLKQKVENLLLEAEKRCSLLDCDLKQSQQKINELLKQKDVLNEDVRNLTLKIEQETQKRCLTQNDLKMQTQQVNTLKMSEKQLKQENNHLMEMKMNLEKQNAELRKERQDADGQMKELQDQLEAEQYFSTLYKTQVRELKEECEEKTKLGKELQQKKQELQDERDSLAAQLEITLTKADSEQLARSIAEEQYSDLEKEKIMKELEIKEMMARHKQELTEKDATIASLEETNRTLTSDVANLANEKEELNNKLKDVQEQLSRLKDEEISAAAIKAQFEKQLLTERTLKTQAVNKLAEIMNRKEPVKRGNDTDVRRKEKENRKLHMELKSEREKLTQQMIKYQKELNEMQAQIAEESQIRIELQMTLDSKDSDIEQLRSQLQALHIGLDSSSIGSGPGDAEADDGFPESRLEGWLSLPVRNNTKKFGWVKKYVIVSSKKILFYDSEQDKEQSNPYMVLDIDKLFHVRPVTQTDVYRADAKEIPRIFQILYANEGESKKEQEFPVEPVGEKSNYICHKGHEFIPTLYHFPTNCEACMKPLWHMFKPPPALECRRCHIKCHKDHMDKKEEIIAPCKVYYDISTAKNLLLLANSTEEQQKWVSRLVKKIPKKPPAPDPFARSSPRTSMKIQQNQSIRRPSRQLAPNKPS
T4 sequence (Q9H2G2 whole entry): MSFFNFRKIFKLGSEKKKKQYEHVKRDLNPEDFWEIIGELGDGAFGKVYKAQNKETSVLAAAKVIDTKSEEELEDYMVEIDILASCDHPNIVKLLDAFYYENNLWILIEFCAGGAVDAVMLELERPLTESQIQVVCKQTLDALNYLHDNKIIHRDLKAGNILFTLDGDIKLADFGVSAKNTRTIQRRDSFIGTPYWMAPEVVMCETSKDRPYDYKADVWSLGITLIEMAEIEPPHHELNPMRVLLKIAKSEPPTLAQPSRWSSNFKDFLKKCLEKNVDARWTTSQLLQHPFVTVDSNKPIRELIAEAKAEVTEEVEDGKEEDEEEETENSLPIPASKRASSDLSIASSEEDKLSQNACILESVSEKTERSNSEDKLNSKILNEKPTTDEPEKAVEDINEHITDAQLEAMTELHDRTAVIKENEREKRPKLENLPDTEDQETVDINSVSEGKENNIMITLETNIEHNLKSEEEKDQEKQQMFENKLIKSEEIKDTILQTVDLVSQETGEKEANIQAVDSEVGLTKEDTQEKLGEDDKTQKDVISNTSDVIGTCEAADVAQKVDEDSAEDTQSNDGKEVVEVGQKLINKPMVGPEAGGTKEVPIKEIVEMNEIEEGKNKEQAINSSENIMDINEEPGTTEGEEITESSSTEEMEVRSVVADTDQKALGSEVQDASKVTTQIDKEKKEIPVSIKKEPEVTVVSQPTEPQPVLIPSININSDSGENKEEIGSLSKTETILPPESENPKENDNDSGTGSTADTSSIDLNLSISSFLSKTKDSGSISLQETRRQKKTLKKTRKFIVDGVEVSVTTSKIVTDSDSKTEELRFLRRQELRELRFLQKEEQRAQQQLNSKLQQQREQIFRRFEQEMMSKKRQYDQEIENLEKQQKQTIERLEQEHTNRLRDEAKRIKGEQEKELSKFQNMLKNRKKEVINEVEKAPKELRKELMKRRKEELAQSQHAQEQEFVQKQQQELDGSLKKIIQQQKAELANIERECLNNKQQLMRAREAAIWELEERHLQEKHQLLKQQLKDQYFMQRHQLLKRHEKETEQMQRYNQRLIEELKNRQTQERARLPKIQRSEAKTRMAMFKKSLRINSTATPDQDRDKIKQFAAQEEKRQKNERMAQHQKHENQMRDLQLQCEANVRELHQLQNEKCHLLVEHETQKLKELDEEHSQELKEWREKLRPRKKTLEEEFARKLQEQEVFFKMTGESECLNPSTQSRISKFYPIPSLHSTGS
Sequence of EGFR(E746-A750del) (P00533 with tags, fused parts or gaps DEL746-750): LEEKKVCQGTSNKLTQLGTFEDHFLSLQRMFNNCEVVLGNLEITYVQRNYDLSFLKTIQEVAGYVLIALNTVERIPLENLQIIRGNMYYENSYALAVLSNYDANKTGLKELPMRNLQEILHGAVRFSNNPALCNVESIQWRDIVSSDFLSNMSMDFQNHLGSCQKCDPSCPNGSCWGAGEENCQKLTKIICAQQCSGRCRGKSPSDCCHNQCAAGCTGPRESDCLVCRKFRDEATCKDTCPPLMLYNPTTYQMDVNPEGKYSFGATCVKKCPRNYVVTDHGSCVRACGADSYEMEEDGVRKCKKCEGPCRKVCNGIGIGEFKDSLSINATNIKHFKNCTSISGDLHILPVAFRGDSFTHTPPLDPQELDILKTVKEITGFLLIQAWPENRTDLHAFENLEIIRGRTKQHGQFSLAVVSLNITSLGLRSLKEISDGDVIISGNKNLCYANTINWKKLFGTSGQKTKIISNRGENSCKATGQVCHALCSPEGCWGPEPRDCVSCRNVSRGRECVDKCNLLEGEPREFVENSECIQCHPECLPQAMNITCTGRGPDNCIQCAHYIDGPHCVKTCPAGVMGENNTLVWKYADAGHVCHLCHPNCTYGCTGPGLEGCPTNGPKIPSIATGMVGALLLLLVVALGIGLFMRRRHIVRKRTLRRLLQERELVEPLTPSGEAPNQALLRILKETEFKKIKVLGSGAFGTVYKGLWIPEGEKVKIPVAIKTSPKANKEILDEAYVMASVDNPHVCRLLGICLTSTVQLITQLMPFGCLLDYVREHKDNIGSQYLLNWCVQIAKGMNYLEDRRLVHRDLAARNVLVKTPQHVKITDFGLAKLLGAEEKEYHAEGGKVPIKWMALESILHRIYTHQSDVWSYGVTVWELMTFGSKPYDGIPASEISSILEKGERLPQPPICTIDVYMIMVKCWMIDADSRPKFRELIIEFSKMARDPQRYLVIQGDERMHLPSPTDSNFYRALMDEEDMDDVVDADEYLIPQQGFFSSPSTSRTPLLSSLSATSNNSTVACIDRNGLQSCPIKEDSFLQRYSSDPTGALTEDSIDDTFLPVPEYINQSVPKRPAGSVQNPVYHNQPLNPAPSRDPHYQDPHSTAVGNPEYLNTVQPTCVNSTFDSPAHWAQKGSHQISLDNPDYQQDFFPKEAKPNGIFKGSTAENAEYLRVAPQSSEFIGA

Structure (SMILES) | remaining binding at 1 µM (BMPR1B) | remaining binding at 1 µM (CSK) | remaining binding at 1 µM (CSNK1A1L) | remaining binding at 1 µM (EGFR(E746-A750del)) | remaining binding at 1 µM (FLT3(D835V)) | remaining binding at 1 µM (PDGFRB) | remaining binding at 1 µM (PRP4) | remaining binding at 1 µM (ROCK2) | remaining binding at 1 µM (SLK)
CNc1c(-c2cnn([C@H]3CCN(C(C)=O)C[C@@H]3F)c2)cnc2[nH]cc(Cl)c12 [Compound 77, 1-((3S,4S)-4-(4-(3-chloro-4-(methylamino)-1H-pyrrolo[2,3-b]pyridin-5-yl)-1H-pyrazol-1-yl)-3-fluoropiperidin-1-yl)ethan-1-one] | 47% | 22% | 79% | 100% | 0.5% | 20% | 14% | 8.9% | 86%
CNc1c(-c2ccc(C(=O)N3CCC(N4CCOCC4)CC3)cc2)cnc2[nH]cc(Cl)c12 [Compound 96, (4-(3-chloro-4-(methylamino)-1H-pyrrolo[2,3-b]pyridin-5-yl)phenyl)(4-morpholinopiperidin-1-yl)methanone] | 54% | 44% | 48% | 93% | 2.9% | 21% | 47% | 1.4% | 68%
O=C(c1ccc(-c2cnc3[nH]cc(Cl)c3c2NC2CCCC2)cc1)N1CCC(N2CCOCC2)CC1 [Compound 101, (4-(3-chloro-4-(cyclopentylamino)-1H-pyrrolo[2,3-b]pyridin-5-yl)phenyl)(4-morpholinopiperidin-1-yl)methanone] | 95% | 100% | 100% | 97% | 6.4% | 83% | 38% | 81% | 78%
